Literature values, collected in US20040248933A1, “Use of 4-phenyl-substituted tetrahydroisoquinolines in the treatment of pain, migraine headaches and urinary incontinence” (priority 2002, published 2004).

System: nocturnal enuresis patients
Settings: patients with nocturnal enuresis following treatment

For `CN(C)CCCN1c2ccccc2CCc2ccccc21` [imipramine, Imipramine], the “Enuresis cured, share of patients” value is listed as “over 50%” and the “Improvements seen, further share of patients” value (in addition to those cured) is listed as 15-20%.
